According to the supplement of paper PMC8967900:

Assays:
Experiment in all cases: selective drug sensitivity score (sDSS, relative to normal bone marrow) (sDSS (score)); higher = more potent and effective on the cell line relative to normal bone marrow cells
Settings in all cases: 72 h
[1] = test system: MHH-CALL-4
[2] = test system: KASUMI-2
[3] = test system: MOLT-4
[4] = test system: COG-LL-355h
[5] = test system: KASUMI-10
[6] = test system: KOPN-8
[7] = test system: HAL-01
[8] = test system: HPB-ALL
[9] = test system: LC4-1
[10] = test system: COG-LL-402h
[11] = test system: TMD5
[12] = test system: 697
[13] = test system: SEM cells
[14] = test system: MHH-CALL-2
[15] = test system: MOLT-16
[16] = test system: KASUMI-9
[17] = test system: CCRF-HSB2
[18] = test system: ALL-PO
[19] = test system: RCH-ACV
[20] = test system: COG-LL-332h
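Note: ALL cell lines in 384-well plates, five doses spanning 10,000-fold, each plate scaled between vehicle and 100 µmol/L benzalkonium chloride controls, sDSS an adapted area-under-curve metric.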

SMILES	selective drug sensitivity score [1]	selective drug sensitivity score [2]	selective drug sensitivity score [3]	selective drug sensitivity score [4]	selective drug sensitivity score [5]	selective drug sensitivity score [6]	selective drug sensitivity score [7]	selective drug sensitivity score [8]	selective drug sensitivity score [9]	selective drug sensitivity score [10]	selective drug sensitivity score [11]	selective drug sensitivity score [12]	selective drug sensitivity score [13]	selective drug sensitivity score [14]	selective drug sensitivity score [15]	selective drug sensitivity score [16]	selective drug sensitivity score [17]	selective drug sensitivity score [18]	selective drug sensitivity score [19]	selective drug sensitivity score [20]
C/C(=C\c1csc(C)n1)[C@@H]1C[C@@H]2O[C@]2(C)CCC[C@H](C)[C@H](O)[C@@H](C)C(=O)C(C)(C)[C@@H](O)CC(=O)N1 [Ixabepilone] (top concentration 1000 nM)	0.58	1.48	3.98	2.48	1.58	6.98	1.78	7.08	5.08	1.58	0.28	4.68	3.58	1.88	4.68	2.58	3.18	2.28	6.78	4.08
Nc1cc(COc2c(Cl)cc(C[C@H](N)C(=O)O)cc2Cl)c2oc(-c3ccccc3)nc2c1 [JPH203] (top concentration 5000 nM)	1.2	0	0	1.5	0.2	0	0.4	0	0	0	2.1	0	0	0	0	2.2	0	0	4.5	0
CS(=O)(=O)CCNCc1ccc(-c2ccc3ncnc(Nc4ccc(OCc5cccc(F)c5)c(Cl)c4)c3c2)o1 [Lapatinib] (top concentration 1000 nM)	0	0	0	0	0	0	2.2	0	0	0	0	0	0	12.1	0	0.2	0	0	0	0
Oc1ccc2c(c1)CC[C@H](c1ccccc1)[C@@H]2c1ccc(OCCN2CCCC2)cc1 [Lasofoxifene] (top concentration 1000 nM)	-1.28	-1.28	-1.28	-1.28	-1.28	-1.28	-0.08	7.52	-1.28	-0.18	-1.28	-1.28	-1.28	-1.28	1.12	-1.28	-1.28	-1.28	-1.28	-1.28
Cc1ccc(F)c(NC(=O)Nc2ccc(-c3cccc4[nH]nc(N)c34)cc2)c1 [Linifanib] (top concentration 1000 nM)	-1.12	-1.12	-1.12	-1.12	6.08	-1.12	-1.12	-1.12	-1.12	-1.12	-1.12	-1.12	1.28	-1.12	-1.12	-1.12	-1.12	-1.12	-1.12	-1.12
Cc1c(F)cc(C(=O)NC2CC2)cc1-c1ccc(C(=O)NCC(C)(C)C)cn1 [Losmapimod] (top concentration 10000 nM)	-0.18	-0.18	-0.18	1.92	-0.18	4.42	-0.08	2.32	3.32	0.42	-0.18	2.72	-0.18	-0.18	0.12	6.92	-0.08	-0.18	11.5	-0.18
CNC(=O)c1cccc2cc(Oc3ccnc4cc(OCC5(N)CC5)c(OC)cc34)ccc12 [Lucitanib] (top concentration 10000 nM)	-0.62	3.48	4.18	-0.62	5.18	6.38	3.88	3.18	1.68	3.58	0.98	5.48	4.98	4.18	3.98	6.28	3.88	2.08	6.38	2.88
O=C1c2c(O)ccc(O)c2C(=O)c2c(NCCNCCO)ccc(NCCNCCO)c21 [Mitoxantrone] (top concentration 1000 nM)	11.1	12.3	8.34	7.94	12.7	16.3	5.64	-3.06	6.74	15.8	4.54	15.6	8.04	7.34	17	11.8	14.2	-0.06	16.2	11.7
CC1(C)CNc2cc(NC(=O)c3cccnc3NCc3ccncc3)ccc21 [Motesanib] (top concentration 10000 nM)	-0.22	-0.22	-0.22	-0.22	-0.22	-0.22	-0.22	-0.22	-0.22	1.98	-0.22	-0.22	-0.22	-0.22	-0.22	-0.22	1.08	-0.22	-0.22	-0.22
CCCN(CCC)C(=O)C1=Cc2ccc(-c3ccc(C(=O)N4CCCC4)cc3)cc2N=C(N)C1 [Motolimod] (top concentration 10000 nM)	-4.48	-4.48	-4.08	-2.38	-2.28	1.52	-4.18	-3.38	-3.58	-4.48	-3.48	-2.68	-3.38	-3.98	-2.78	1.22	-3.48	-3.88	-1.68	-3.18
Cc1cc(-c2ncc(CC(=O)Nc3ccc(-c4cnccn4)cn3)cc2C)ccn1 [NVP-LGK974] (top concentration 10000 nM)	3.5	1	3.9	3.3	0.8	2.6	-0.8	-0.6	1.2	-0.1	3.4	5.6	2.2	1.9	4.9	0.1	0.5	3.4	5.6	0.5
CC1(C)NC(=O)N(c2ccc([N+](=O)[O-])c(C(F)(F)F)c2)C1=O [Nilutamide] (top concentration 10000 nM)	2.02	-0.48	-0.48	-0.48	0.22	-0.48	2.82	-0.48	-0.48	-0.48	3.42	0.22	-0.48	7.92	2.72	-0.28	-0.48	-0.08	-0.48	-0.48
CNC(=O)c1ccc2cc([C@@]3(O)CCn4cncc43)ccc2c1 [Orteronel] (top concentration 10000 nM)	0	4.6	0	0	0	1	0	0	4.9	0	0	0	0	0	0	0	0	0	0	0
C=CCc1cccc(/C=N/NC(=O)CN2CCN(Cc3ccccc3)CC2)c1O [PAC-1] (top concentration 10000 nM)	1.18	-0.72	2.58	2.08	0.98	5.28	3.38	0.98	0.18	4.98	0.98	4.08	2.98	5.58	2.68	0.38	1.78	0.98	1.18	7.08
O=C(Nc1cccnc1)N1CCC(Cc2cccc(Oc3ccc(C(F)(F)F)cn3)c2)CC1 [PF-3845] (top concentration 10000 nM)	0.96	-0.24	2.36	-0.54	-1.34	0.46	-0.84	-0.14	-0.54	-0.84	-0.94	4.06	0.96	-0.24	2.66	-0.84	3.26	2.36	5.66	2.16
COc1cc(Br)c(Nc2nc(-c3c(C)nc4ncccn34)cs2)c(Br)c1 [PTC-209] (top concentration 10000 nM)	-2.68	-2.68	-0.48	-0.38	0.92	4.82	0.42	6.92	0.12	-0.78	-2.18	5.62	2.42	1.92	0.72	1.92	0.72	-0.98	7.12	-1.08
C=CC(=O)N1CCC(Oc2cc3c(Nc4ccc(Cl)c(Cl)c4F)ncnc3cc2OC)CC1 [Poziotinib] (top concentration 1000 nM)	0.68	5.98	-0.22	-0.22	-0.22	-0.22	1.18	-0.12	0.78	1.58	1.28	-0.22	3.88	-0.22	-0.22	0.98	3.68	-0.22	4.98	1.48
CC[C@H](C)C(=O)O[C@H]1C[C@H](O)C=C2C=C[C@H](C)[C@H](CC[C@@H](O)C[C@@H](O)CC(=O)O)[C@H]21 [Pravastatin] (top concentration 10000 nM)	-0.66	-0.66	-0.66	-0.56	-0.66	-0.66	0.64	-0.66	3.04	-0.46	-0.66	-0.66	-0.66	-0.36	-0.66	-0.66	-0.66	-0.66	-0.56	-0.66
